Data taken from patent publication US6221914A, “Sulfonamide bridging compounds that inhibit tryptase activity” (Array Biopharma Inc., priority 1998, dated 2001).

Columns and labels:
Assay type in all cases: biochemical
Human lung tryptase = test: Ki determination, human lung tryptase (Tosyl-Gly-Pro-Arg-pNA substrate); settings: 50 mM Tris-HCl pH 8.0, 37° C., 1 nM tryptase, 320 μM GPR-pNA; read-out: Experimentally Determined Ki, Tryptase
Method: (§1) Protease inhibition was assayed according to published procedures with minor modifications using various proteases and specific chromogenic peptide p-nitroanilide substrates. Assays were performed in Costar ultra-low cluster 96-well microtiter plate (Costar Corning Corp., Cambridge Mass.). Each protease was incubated with various concentrations of the test compound for 15 min. at 37° C. or as otherwise indicated, in specific assay buffer, and the residual activity was then measured by addition of the substrate. p-Nitroaniline produced by the proteolysis was determined by measuring the change in absorbance at 405 nm on a SpectraMAX 340 plate reader (Molecular devices, Sunnyvale, Calif.).
(§2) 1. The inhibition constant, Ki is calculated from individual data points using the equation for a tight-binding inhibitor (See Beith, "Proteinase Inhibitors-Proceedings of 2nd Int. Res. Conference", Fritz, et al. eds, New York, p.4463-4469 (1974)):
(§3) vi /vo [((Ki '+[I]+[E]o)^2 -4 [I]o
(§4) [E]o)^1/2 (Ki '+[I]o -[E]o)]/2[E]o
(§5) where Ki ' is apparent inhibition constant; vi and vo are the inhibited and uninhibited rates, respectively; [I]o and [E]o are the total concentrations of inhibitor and enzyme, respectively.
(§6) [note: [E]o is determined by active site titration of enzyme]
(§7) The Ki values are obtained by correcting Ki ' values for the effect of substrate concentration according to: [formula]
(§8) 2. Other inhibition data (Ki >>[E]o), the Ki is calculated from using the equations for a competitive inhibitor: [formula]
Human lung tryptase purchased from Cortex Biochem (San Leandro, Calif.) was purified further on a Superdex 200 gel-filtration column. The active-site concentration of the enzyme was determined by spectrophotometric titration with 4-nitrophenyl 4'-guanidinobenzoate according to Schwartz, et al., J. Immunol., 114, 2304-2311 (1990). Tryptase activity was measured according to the procedures of Schwartz, et al., J. Biol. Chem., 261, 7372-7379 (1986) (See also, Schwartz, L. B., Methods In Enzymology, 244, 88 (1994)) with minor modifications, using Tosyl-Gly-Pro-Arg-p-nitroanilide ("GPR-pNA", Sigma Chemical Co., St. Louis, Mo., T-1637) as a chromogenic substrate. The reaction was performed in 50 mM Tris-HCl, pH 8.0, containing 150 mM NaCl and 0.02% Triton X-100 at 37° C. in Costar ultra-low cluster 96-well microtiter plates (Costar Corning Corp., Cambridge, Mass.). The amount of pNA produced by tryptase was determined by measuring the change in absorbance at 405 nm on a SpectraMAX 340 plate reader (Molecular devices, Sunnyvale, Calif.). The Km for the substrate was determined by Lineweaver-Burk analysis from initial velocities of substrate hydrolysis. The inhibition assay was carried out in a total volume of 200 μL. Tryptase (30 μL- final concentration 1 nM) was incubated with various concentrations of sample compound (50 μL) to be tested in the above assay buffer for 5 min. The reaction was started by the addition of substrate GPR-pNA (40 μL-final concentration 320 μM), and the residual activity was measured after 15 min. of incubation. The inhibition constant, Ki, was determined by fitting the inhibition data to a two-site competitive binding equation using data analysis program GraphPad PRISM (GraphPad Software, Inc., San Diego, Calif.).
(§9) The inhibition constant (Ki) of the test compounds against each proteolytic enzyme was determined according to Zitnik et al., Biochem. Biophys. Res. Commun. 232, 687-697 (1997)).

Human plasma thrombin = target: T1, Human plasma thrombin (Homo sapiens, UniProt P00734); test: Ki determination, human plasma thrombin (H-D-Phe-Pip-Arg-pNA); settings: 50 mM Tris-HCl, pH 8.3, 100 mM NaCl, 1% BSA; read-out: Experimentally Determined Ki, Thrombin
T1 construct: from tissue; host or cells: human plasma
Method: as §1, §2, §3, §4, §5, §6, §7, §8
Human plasma thrombin activity was determined by using H-D-Phe-Pip-Arg-pNA in 50 mM Tris-HCl, pH 8.3, 100 mM NaCl, 1% BSA (See Lottenberg, et al. Meth. Enzymol. 80, 341-361 (1981)).
as §9

Human plasma factor Xa = target: T2, Human plasma factor Xa (Homo sapiens, UniProt P00742); test: Ki determination, human plasma factor Xa (N-Benzoyl-Ile-Glu-Gly-Arg-pNA); settings: 50 mM Tris-HCl, pH 7.8, 200 mM NaCl, 0.05% BSA; read-out: Experimentally Determined Ki, Factor Xa
T2 construct: from tissue; host or cells: human plasma
Method: as §1, §2, §3, §4, §5, §6, §7, §8
Human plasma factor Xa activity was determined by using N-Benzoyl-Ile-Glu-Gly-Arg-pNA in 50 mM Tris-HCl, pH 7.8, 200 mM NaCl, 0.05% BSA (See Lottenberg, et al. Meth. Enzymol. 80, 341-361 (1981)).
as §9

[1] = target: T3, Human Neutrophil elastase (Homo sapiens, UniProt P08246); test: Ki determination, human neutrophil elastase (pyroGlu-Pro-Val-pNA); settings: 100 mM Tris-HCl, pH 8.3, 0.96 M NaCl, 1% BSA; read-out: Experimentally Determined Ki, Elastase
T3 construct: from tissue; host or cells: human neutrophils
T3 sequence (P08246 30-267): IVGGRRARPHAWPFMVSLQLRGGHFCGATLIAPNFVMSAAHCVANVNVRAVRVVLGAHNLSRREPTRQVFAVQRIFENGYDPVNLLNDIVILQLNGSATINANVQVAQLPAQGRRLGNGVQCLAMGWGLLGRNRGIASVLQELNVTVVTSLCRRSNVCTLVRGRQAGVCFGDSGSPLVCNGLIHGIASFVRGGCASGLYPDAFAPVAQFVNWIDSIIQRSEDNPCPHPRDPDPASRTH
Method: as §1, §2, §3, §4, §5, §6, §7, §8
Human Neutrophil elastase activity was determined by using pyroGlu-Pro-Val-pNA in 100 mM Tris-HCl, pH 8.3, 0.96 M NaCl, 1% BSA (See Kramps, et al. Scand. J. Clin. Lab. Invest. 43, 427-432 (1983)).
as §9

Human plasma plasmin = target: T4, Human plasma plasmin (Homo sapiens, UniProt P00747); test: Ki determination, human plasma plasmin (Tosyl-Gly-Pro-Lys-pNA); settings: 100 mM Tris-HCl, pH 7.4, 100 mM NaCl, 0.05% Triton X-100; read-out: Experimentally Determined Ki, Plasmin
T4 construct: from tissue; host or cells: human plasma
Method: as §1, §2, §3, §4, §5, §6, §7, §8
Human plasma plasmin activity was determined by using Tosyl-Gly-Pro-Lys-pNAin 100 mM Tris-HCl, pH 7.4, 100 mM NaCl, 0.05% Triton X-100 (See Lottenberg, et al., Meth. Enzymol. 80, 341-361 (1981)).
as §9

[2] = target: T5, Human Neutrophil Cathepsin G (Homo sapiens, UniProt P08311); test: Ki determination, human neutrophil cathepsin G (N-Suc-Ala-Ala-Pro-Phe-pNA); settings: 625 mM Tris-HCl, pH 7.5, 2.5 mM MgCl2, 0.125% Brij 35; read-out: Experimentally Determined Ki, Cathepsin G
T5 construct: from tissue; host or cells: human neutrophils
T5 sequence (P08311 21-255): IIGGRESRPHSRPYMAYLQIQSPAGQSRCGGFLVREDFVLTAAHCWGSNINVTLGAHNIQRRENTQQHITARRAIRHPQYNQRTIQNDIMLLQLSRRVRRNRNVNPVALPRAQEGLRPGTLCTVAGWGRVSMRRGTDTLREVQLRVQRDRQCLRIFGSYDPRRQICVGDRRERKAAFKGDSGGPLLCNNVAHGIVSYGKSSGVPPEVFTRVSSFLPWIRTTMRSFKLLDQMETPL
Method: as §1, §2, §3, §4, §5, §6, §7, §8
Human Neutrophil Cathepsin G activity was determined by using N-Suc-Ala-Ala-Pro-Phe-pNA in 625 mM Tris-HCl, pH 7.5, 2.5 mM MgCl2, 0.125% Brij 35 (See Groutas et al., Arch. Biochem. Biophys. 294, 144-146 (1992)).
as §9

[3] = target: T6, Bovine pancreatic Trypsin (Bos taurus, UniProt P00760); test: Ki determination, bovine pancreatic trypsin (N-a-Benzoyl-L-Arg-pNA); settings: 50 mM Tris-HCl, pH 8.2, 20 mM CaCl2; read-out: Experimentally Determined Ki, Trypsin
T6 construct: from tissue; host or cells: bovine pancreas
T6 sequence (P00760 24-246): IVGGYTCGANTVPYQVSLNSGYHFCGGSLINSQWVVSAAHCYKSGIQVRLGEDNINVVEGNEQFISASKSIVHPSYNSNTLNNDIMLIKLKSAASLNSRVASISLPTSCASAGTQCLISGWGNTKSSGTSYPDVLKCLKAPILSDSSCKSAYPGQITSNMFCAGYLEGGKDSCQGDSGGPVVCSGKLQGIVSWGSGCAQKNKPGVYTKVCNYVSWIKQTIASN
Method: as §1, §2, §3, §4, §5, §6, §7, §8
Bovine pancreatic Trypsin (TPCK-treated) activity was determined by using N-a-Benzoyl-L-Arg-pNA in 50 mM Tris-HCl, pH 8.2, 20 mM CaCl2 (See Somorin, et al., J. Biochem. 85, 157-162 (1979)).
as §9

[4] = target: T7, Bovine Pancreatic Chymotrypsin (Bos taurus, UniProt P00766); test: Ki determination, bovine pancreatic chymotrypsin (N-Suc-Ala-Ala-Pro-Phe-pNA); settings: 100 mM Tris-HCl, pH 7.8, 10 mM CaCl2; read-out: Experimentally Determined Ki, Chymotrypsin
T7 construct: from tissue; host or cells: bovine pancreas
Method: as §1, §2, §3, §4, §5, §6, §7, §8
Bovine Pancreatic Chymotrypsin activity was determined by using N-Suc-Ala-Ala-Pro-Phe-pNA in 100 mM Tris-HCl, pH 7.8, 10 mM CaCl2 (See Delmar, et al., J. Biochem. 85, 157-162 (1979)).
as §9

Human plasma kallikrein = target: T8, Human plasma kallikrein (Homo sapiens, UniProt P03952); test: Ki determination, human plasma kallikrein (H-D-Prolyl-Phe-Arg-pNA); settings: 50 mM Tris-HCl, pH 7.8, 200 mM NaCl, 0.05% BSA; read-out: Experimentally Determined Ki, Plasma Kallikrein
T8 construct: from tissue; host or cells: human plasma
Method: as §1, §2, §3, §4, §5, §6, §7, §8
(§10) I. Human Plasma and r-Tissue Kallikrein
(§11) Human plasma and r-tissue kallikrein activity were determined in 50 mM Tris-HCl, pH 7.8, 200 mM NaCl, 0.05% BSA by using H-D-Prolyl-Phe-Arg-pNA and DL-Val-Leu-Arg-pNA, respectively (See Lottenberg, et al., Meth. Enzymol. 80, 341-361 (1981)).
as §9

r-tissue kallikrein = r-tissue kallikrein (Homo sapiens, UniProt P06870); test: Ki determination, r-tissue kallikrein (DL-Val-Leu-Arg-pNA); settings: 50 mM Tris-HCl, pH 7.8, 200 mM NaCl, 0.05% BSA; read-out: Experimentally Determined Ki, Tissue Kallikrein
Method: as §1, §2, §3, §4, §5, §6, §7, §8, §10, §11, §9

T4 sequence (P00747 581-810 limits assumed): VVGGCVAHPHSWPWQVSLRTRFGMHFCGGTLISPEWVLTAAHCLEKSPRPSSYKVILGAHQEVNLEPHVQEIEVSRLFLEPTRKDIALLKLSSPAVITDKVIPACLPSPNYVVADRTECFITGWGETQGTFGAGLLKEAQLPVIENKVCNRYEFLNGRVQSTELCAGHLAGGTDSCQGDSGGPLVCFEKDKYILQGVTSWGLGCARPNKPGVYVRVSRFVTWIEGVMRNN
T4 sequence (P00747 97-580 partner limits assumed): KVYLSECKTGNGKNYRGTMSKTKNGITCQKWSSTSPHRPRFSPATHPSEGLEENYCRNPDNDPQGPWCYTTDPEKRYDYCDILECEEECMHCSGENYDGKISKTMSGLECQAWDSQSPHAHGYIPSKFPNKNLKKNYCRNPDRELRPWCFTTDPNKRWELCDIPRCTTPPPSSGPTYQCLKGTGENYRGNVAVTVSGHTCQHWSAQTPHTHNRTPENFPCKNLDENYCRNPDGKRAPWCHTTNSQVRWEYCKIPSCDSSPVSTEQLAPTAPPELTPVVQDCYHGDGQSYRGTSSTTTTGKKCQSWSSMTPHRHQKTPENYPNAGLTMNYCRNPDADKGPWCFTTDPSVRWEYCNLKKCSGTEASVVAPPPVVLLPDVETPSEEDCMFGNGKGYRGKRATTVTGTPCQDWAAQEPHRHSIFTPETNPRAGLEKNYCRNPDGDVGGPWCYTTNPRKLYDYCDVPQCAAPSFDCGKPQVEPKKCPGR
T2 sequence (P00742 235-488 limits assumed): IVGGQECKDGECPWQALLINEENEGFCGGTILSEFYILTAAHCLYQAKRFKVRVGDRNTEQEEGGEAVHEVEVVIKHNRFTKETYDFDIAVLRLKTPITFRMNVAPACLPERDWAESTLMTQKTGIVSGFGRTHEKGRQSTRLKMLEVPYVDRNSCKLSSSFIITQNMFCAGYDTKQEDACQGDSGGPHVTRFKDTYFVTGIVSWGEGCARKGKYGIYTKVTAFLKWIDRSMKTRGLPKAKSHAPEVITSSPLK
T2 sequence (P00742 41-179 partner limits assumed): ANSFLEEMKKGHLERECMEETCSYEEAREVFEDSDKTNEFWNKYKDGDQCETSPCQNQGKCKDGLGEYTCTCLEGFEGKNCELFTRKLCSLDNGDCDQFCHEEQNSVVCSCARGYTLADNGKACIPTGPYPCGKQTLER
Sequence of r-tissue kallikrein (P06870 25-262): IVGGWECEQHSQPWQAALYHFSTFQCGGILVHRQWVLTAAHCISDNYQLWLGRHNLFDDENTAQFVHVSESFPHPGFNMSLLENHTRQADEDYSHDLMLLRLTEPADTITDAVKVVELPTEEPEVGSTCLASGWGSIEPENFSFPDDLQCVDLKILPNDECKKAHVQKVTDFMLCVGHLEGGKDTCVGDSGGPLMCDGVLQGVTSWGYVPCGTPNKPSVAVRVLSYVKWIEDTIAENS
T8 sequence (P03952 391-638 limits assumed): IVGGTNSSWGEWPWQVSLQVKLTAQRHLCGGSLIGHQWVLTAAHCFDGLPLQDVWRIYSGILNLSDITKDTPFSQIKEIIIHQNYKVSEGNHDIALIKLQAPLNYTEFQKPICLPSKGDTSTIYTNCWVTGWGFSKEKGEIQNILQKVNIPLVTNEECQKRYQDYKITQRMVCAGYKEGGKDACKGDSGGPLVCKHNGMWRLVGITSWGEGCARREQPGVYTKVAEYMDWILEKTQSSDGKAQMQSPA
T8 sequence (P03952 20-390 partner limits assumed): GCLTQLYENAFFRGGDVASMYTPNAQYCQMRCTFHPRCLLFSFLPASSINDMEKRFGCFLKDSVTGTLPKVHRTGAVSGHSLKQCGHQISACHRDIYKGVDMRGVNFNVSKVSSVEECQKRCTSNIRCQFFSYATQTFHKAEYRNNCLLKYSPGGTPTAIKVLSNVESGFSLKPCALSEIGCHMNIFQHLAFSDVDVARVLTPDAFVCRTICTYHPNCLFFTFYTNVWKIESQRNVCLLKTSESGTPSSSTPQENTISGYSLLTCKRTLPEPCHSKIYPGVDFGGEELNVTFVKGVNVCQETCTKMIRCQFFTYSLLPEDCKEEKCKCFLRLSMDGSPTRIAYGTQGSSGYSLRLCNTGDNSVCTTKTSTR

SMILES	Ki (Human lung tryptase) [nM]	Ki (Human plasma thrombin) [µM]	Ki (Human plasma factor Xa) [µM]	Ki [1] [µM]	Ki (Human plasma plasmin) [µM]	Ki [2] [µM]	Ki [3] [µM]	Ki [4] [µM]	Ki (Human plasma kallikrein) [µM]	Ki (r-tissue kallikrein) [µM]
N=C(N)c1ccc(S(=O)(=O)NCc2ccc(OCCCCCOc3ccc(CNS(=O)(=O)c4ccc(C(=N)N)cc4)cc3)cc2)cc1 [Example 42, 1,5-Bis-{4-[(4-carbamimidoyl-benzenesulfonylamino)-methyl]-phenoxy}-pentane]	250	> 100	47	> 100	> 100	> 100	–	–	–	–
N=C(N)c1ccc(S(=O)(=O)NCc2ccc(OCCCCCCOc3ccc(CNS(=O)(=O)c4ccc(C(=N)N)cc4)cc3)cc2)cc1 [Example 44, 1,6-Bis-{4-[(4-carbamimidoyl-benzenesulfonylamino)-methyl]-phenoxy}-hexane]	3200	–	–	–	–	–	8	–	–	–
N=C(N)c1ccc(S(=O)(=O)NCc2ccc(OCCCCCCCOc3ccc(CNS(=O)(=O)c4ccc(C(=N)N)cc4)cc3)cc2)cc1 [Example 46, 1,7-Bis-{4-[(4-carbamimidoyl-benzenesulfonylamino)-methyl]-phenoxy}-heptane]	1500	–	–	–	–	–	–	–	–	–
N=C(N)c1ccc(S(=O)(=O)NCc2ccc(OCCCCOc3ccc(CNS(=O)(=O)c4ccc(C(=N)N)cc4)cc3)cc2)cc1 [Example 48, 1,4-Bis-{4-[(4-carbamimidoyl-benzenesulfonylamino)-methyl]-phenoxy}-butane]	12500	–	–	–	–	–	4.2	–	–	–
N=C(N)c1ccc(S(=O)(=O)NCc2ccc(OCCOc3ccc(CNS(=O)(=O)c4ccc(C(=N)N)cc4)cc3)cc2)cc1 [Example 52, 1,2-Bis-{4-[(4-carbamimidoyl-benzenesulfonylamino)-methyl]-phenoxy}-ethane]	1500	–	–	–	–	–	–	–	–	–
N=C(N)c1ccc(S(=O)(=O)NCc2cccc(OCCCCCOc3cccc(CNS(=O)(=O)c4ccc(C(=N)N)cc4)c3)c2)cc1 [Example 74, 1,5-Bis-{3-[(4-carbamimidoyl-benzenesulfonylamino)-methyl]-phenoxy}-pentane]	–	> 100	40	> 100	3.7	> 100	1.4	> 100	9	16
N=C(N)c1cccc(S(=O)(=O)NCc2cccc(OCCCCCOc3cccc(CNS(=O)(=O)c4cccc(C(=N)N)c4)c3)c2)c1 [Example 75, 1,5-Bis-{3[-(3-carbamimidoyl-benzenesulfonylamino)-methyl]-phenoxy}-pentane]	–	> 100	6	> 100	> 100	> 100	3	> 100	2.9	> 100
N=C(N)c1ccc2[nH]c(CC(=O)NCc3ccc(CNCCNCc4ccc(CNC(=O)Cc5nc6cc(C(=N)N)ccc6[nH]5)cc4)cc3)nc2c1 [Example 119]	2	–	–	–	–	–	–	–	–	–
